As a reminder, the Ki is a dissociation constant, usually derived from enzyme kinetics or from competition with a known ligand.

The values that follow come from patent US20190275040A1, “COMPOUNDS AND METHODS FOR TREATING OR PREVENTING ALZHEIMER'S DISEASE” (YALE UNIVERSITY, priority 2016, published 2019).

The target in assay [1] is T1, Pyk2 (Homo sapiens, UniProt Q14289). The experiment in a line: Pyk2 Ki of kinase inhibitors (CHEMBL & IUPHR-BPS database screen, Table 2). Type of assay: biochemical. Particulars: Pyk2 versus Fyn.
Assay [2] deals with T1, Pyk2. Particulars: read-out: Pyk2 Ki; cited from earlier work.
For a further assay, the system named is APP/PS1 mice. The settings on record: cited from earlier work.
The subject of assay [3] is cultured hippocampal neurons. The experiment in a line: Graf1c knockdown-induced dendritic spine loss in cultured hippocampal neurons. It is filed as cell-based, mouse. The settings on record: 10 μM. The procedure: FIGS. 17A-17B illustrate the finding that Graf1 is a functional GTPase activating protein (GAP) in mature neurons and regulates dendritic spine formation. FIG. 17A: Representative fluorescence images of cultured hippocampal neurons. […] Scale bar, 10 μm. FIG. 17B: Quantification of dendritic spine density in the transfected neurons.
Next, it was evaluated whether RhoA activity is necessary for Pyk2-induced decrease in dendritic spine density. As described elsewhere herein, overexpression of GFP-Pyk2 induces loss of half of hippocampal neuron dendritic spines (FIGS. 10E-10F). […] Therefore, Pyk2 interacts with Graf1c within dendritic spines to allow increased RhoA-GTP levels and subsequent reduced synapse density.

Assay [4] concerns primary hippocampal neurons. The experiment in a line: Dendritic spine motility in primary hippocampal neurons. Type of assay: cell-based, mouse.
Description: FIG. 11A: Representative images of dendritic spine motility by standard deviation projection of time-lapse image. […] The standard deviation value for each pixel is shown by thermal color scale. […] FIG. 11B: Quantification of spine motility, expressed as % of changed area of spines with subtraction of changed area of dendritic shaft as background (changed area=(ΔAspine/Aspine×100)−(ΔAshaft/Ashaft×100)). […] Data are graphed as mean±SEM (n=7-8 coverslips from 3 different cultures). **p<0.01, ***p<0.001 by ANOVA, Tukey's multiple comparisons test.
FIG. 18A: Representative images of dendritic spine motility by standard deviation projection of time stacks. […] To display the spine motility in time-lapse images, the time stack images over 5 min of each conditions were projected to standard deviation using Image J and color coated with thermal color scale. […] FIG. 18B: Quantification of spine motility, expressed as % of changed area of spines with subtraction of dendritic shaft area change (changed area=(ΔAspine/Aspine×100)−(ΔAshaft/Ashaft×100)). Mean±SEM (n=5 coverslips).
Time-lapse images were acquired for 5 minutes with 10 second intervals in Tyrode's solution using 60× objective lens driven Volocity software. Time-lapse images (31 time frames over 5 min) were subjected to standard deviation (STD) projection to visualize spine motility in single image and colorized with thermal scale using ImageJ software (NIH). Quantitative measurements of spine motility by calculating the changed area at individual dendritic spines were conducted by using ImageJ software by an observer unaware of treatment group.

T1 sequence (Q14289 whole entry, species assumed): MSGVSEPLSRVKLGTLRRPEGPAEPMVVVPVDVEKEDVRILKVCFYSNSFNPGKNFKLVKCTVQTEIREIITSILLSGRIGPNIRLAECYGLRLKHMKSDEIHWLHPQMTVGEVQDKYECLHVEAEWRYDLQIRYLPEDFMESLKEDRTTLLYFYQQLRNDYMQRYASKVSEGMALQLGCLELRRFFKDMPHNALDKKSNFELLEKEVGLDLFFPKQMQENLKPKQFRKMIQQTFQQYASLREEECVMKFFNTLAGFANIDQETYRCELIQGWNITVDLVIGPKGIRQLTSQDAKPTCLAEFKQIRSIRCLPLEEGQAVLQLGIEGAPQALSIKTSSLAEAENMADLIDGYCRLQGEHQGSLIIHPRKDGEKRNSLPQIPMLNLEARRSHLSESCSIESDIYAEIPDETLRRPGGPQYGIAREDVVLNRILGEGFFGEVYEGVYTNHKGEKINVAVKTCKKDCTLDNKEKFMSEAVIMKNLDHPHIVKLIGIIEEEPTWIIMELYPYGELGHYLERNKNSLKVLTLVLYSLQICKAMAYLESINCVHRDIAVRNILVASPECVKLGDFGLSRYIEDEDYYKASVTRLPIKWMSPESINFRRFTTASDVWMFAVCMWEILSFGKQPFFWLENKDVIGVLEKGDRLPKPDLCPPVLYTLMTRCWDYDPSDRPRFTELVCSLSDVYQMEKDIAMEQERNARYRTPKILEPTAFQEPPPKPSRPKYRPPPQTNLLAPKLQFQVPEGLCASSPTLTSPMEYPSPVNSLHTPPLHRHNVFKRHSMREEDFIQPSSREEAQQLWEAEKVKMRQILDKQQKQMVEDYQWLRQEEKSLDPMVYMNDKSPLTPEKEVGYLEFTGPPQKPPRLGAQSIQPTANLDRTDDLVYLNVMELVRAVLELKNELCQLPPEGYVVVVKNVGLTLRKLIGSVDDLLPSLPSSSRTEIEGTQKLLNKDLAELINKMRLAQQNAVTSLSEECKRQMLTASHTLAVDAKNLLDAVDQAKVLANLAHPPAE

Consider `CN1CCN(CCOc2cc(OC3CCOCC3)c3c(Nc4c(Cl)ccc5c4OCO5)ncnc3c2)CC1` [AZD-0530, N-(5-chloro-1,3-benzodioxol-4-yl)-7-[2-(4-methyl-1-piperazinyl)ethoxy]-5-[(tetrahydro-2H-pyran-4-yl)oxy]-4-quinazolinamine], for which the “Inhibition Character” value on Pyk2 [1] is recorded as “Fyn selective”. Besides, the Ki on Pyk2 [2] is above 1000 nM. Moreover, the “memory deficits and synapse loss in APP/PS1 mice” value in the assay on APP/PS1 mice (mouse, in vivo) was “rescuing memory deficits and synapse loss”. For the same compound, the “activated p-Pyk2 level in transgenic mice” value in the assay with APP/PS1 mice (transgenic mice have a two-fold increase) is “reduces this level to that of WT mice”.

Take `Cc1cc(N2CCOCC2)cc2nc(-c3c(NCC(O)c4cccc(Cl)c4)cc[nH]c3=O)[nH]c12` (centres unmarked) [Compound 5, 4-((2-(3-chlorophenyl)-2-hydroxyethyl)amino)-3-(7-methyl-5-morpholino-1H-benzo[d]imidazol-2-yl)pyridin-2(1H)-one]: the “Inhibition Character” value at Pyk2 [1] was “dual Pyk2-Fyn”.

For `Cn1cc(-c2cnc(N)c3c(-c4ccc(NC(=O)Nc5ccc(OC(F)F)cc5)cc4)csc23)cn1` [Compound 6, 1-(4-(4-amino-7-(1-methyl-1H-pyrazol-4-yl)thieno[3,2-c]pyridin-3-yl)phenyl)-3-(4-(difluoromethoxy)phenyl)urea], the “Inhibition Character” value on Pyk2 [1] is on record as “dual Pyk2-Fyn”.

As for `Cc1cnc(Nc2cccc(S(N)(=O)=O)c2)nc1Nc1ccc(OCC(N)=O)cc1` [Compound 8, 2-(4-((5-methyl-2-((3-sulfamoylphenyl)amino)pyrimidin-4-yl)amino)phenoxy)acetamide], the “Inhibition Character” value at Pyk2 [1] is on record as “dual Pyk2-Fyn”.

Regarding `C[C@@H](N)[C@H]1CC[C@H](C(=O)Nc2ccncc2)CC1` [Compound Y27632], in assay [3], the Graf1c-knockdown-induced spine loss result is listed as “rescue Graf1c-knockdown-induced spine loss”. Besides, in assay [4] (Aβo 24 hours, PF-719 1 μM, Y27632 10 μM), the “Aβo-induced decrease in spine motility” value is “rescue fully the Aβo-induced decrease in spine motility”.

Consider `C[C@]12O[C@H](C[C@]1(O)CO)n1c3ccccc3c3c4c(c5c6ccccc6n2c5c31)CNC4=O` [Lestaurtinib, (5S,6S,8R)-6-Hydroxy-6-(hydroxymethyl)-5-methyl-7,8,14,15-tetrahydro-5H-16-oxa-4b,8a,14-triaza-5,8-methanodibenzo[b,h]cycloocta[jkl]cyclopenta[e]-as-indacen-13(6H)-one], for which the “Inhibition Character” value at Pyk2 [1] is “dual Pyk2-Fyn”.

Regarding `C=C1[C@@H](C)[C@H]2[C@H](Cc3ccccc3)NC(=O)[C@]23[C@H](OC(C)=O)/C=C/[C@@](C)(O)C(=O)[C@@H](C)C/C=C/[C@H]3[C@@H]1O` [cytochalasin D], the “spine motility (actin dependence)” value in assay [4] (1 μm Cytochalasin D for 20 minutes, no Aβo) is recorded as “near complete cessation of spine motility”.
